Source: patent US6399617B1, “Use” (Biovitrum AB, priority 2000, dated 2002)

Assays:
ob/ob mice = test: Effect of compounds on food intake in ob/ob mice (15 h food consumption during subcutaneous minipump infusion); type: in vivo, mouse; settings: subcutaneous continuous infusion
Protocol: Obese (ob/ob) mouse is selected as the primary animal model for screening as this mutant mouse consumes high amounts of food resulting in a high signal to noise ratio. To further substantiate and compare efficacy data, the effect of the compounds on food consumption is also studied in wild type (C57BL/6J) mice. The amount of food consumed during 15 hours of infusion of compounds is recorded.
Male mice (obese C57BL/6JBom-Lep^ob and lean wild-type C57B1/6JBom; Bomholtsgaard, Denmark) 8-9 weeks with an average body weight of 50 g (obese) and 25 g (lean) are used in all the studies. The animals are housed singly in cages at 23±1° C., 40-60% humidity and have free access to water and standard laboratory chow. The 12/12-h light/dark cycle is set to lights off at 5 p.m. The animals are conditioned for at least one week before start of study.
The test compounds are dissolved in solvents suitable for each specific compound such as cyclodextrin, cyclodextrin/methane sulfonic acid, polyethylene glycol/methane sulfonic acid, or saline. Fresh solutions are made for each study. […] The purity of the test compounds is of analytical grade.
The animals are weighed at the start of the study and randomized based on body weight. Alzet osmotic minipumps (Model 2001D; infusion rate 8 μl/h) are used and loaded essentially as recommended by the Alzet technical information manual (Alza Scientific Products, 1997; Teeuwes and Yam, 1976). Continuous subcutaneous infusion with 24 hours duration is used. The minipumps are either filled with different concentrations of test compounds dissolved in vehicle or with only vehicle solution and maintained in vehicle pre-warmed to 37° C. […]
The weights of the food pellets are measured at 5 p.m. and at 8 p.m. for two days before (baseline) and one day after the implantation of the osmotic minipumps. […]
Food consumption for 15 hours is measured for the three consecutive days and the percentage of basal level values is derived for each animal from the day before and after treatment. The values are expressed as mean±SD and mean±SEM from eight animals per dose group. […]

[1] = Determination of plasma concentration (free plasma concentration at steady state); type: in vivo, mouse; settings: ob/ob mice, subcutaneous continuous infusion
Protocol: The weights of the food pellets are measured at 5 p.m. and at […]. for two days before (baseline) and one day after the implantation of the osmotic minipumps. The weighing is performed with a computer assisted Mettler Toledo PR 5002 balance. Occasional spillage is corrected for. At the end of the study the animals are killed by neck dislocation and trunk blood sampled for later analysis of plasma drug concentrations.
The plasma sample proteins are precipitated with methanol, centrifuged and the supernatant is transferred to HPLC vials and injected into the liquid chromatography/mass spectrometric system. The mass spectrometer is set for electrospray positive ion mode and Multiple Reaction Monitoring (MRM with the transition m/z 316⇄221).
A linear regression analysis of the standards forced through the origin is used to calculate the concentrations of the unknown samples.

COc1ccc(NS(=O)(=O)c2sc3ccc(Cl)cc3c2C)cc1N1CCNCC1.Cl [SB-271046, 5-Chloro-3-methyl-benzo-[b]thiophene-2-sulphonic acid (4-methoxy-3-piperazin-yl-phenyl)-amide monohydrochloride]
reduction of food intake compared to the basal level of food intake (ob/ob mice; 10 mg/kg/day): 45% | reduction of food intake compared to the basal level of food intake (ob/ob mice; 30 mg/kg/day): 60% | reduction of food intake compared to the basal level of food intake (ob/ob mice; 50 mg/kg/day): 77% | Free plasma concentration at the steady state giving the effect ([1]; 10 mg/kg/day): 0.006 | Free plasma concentration at the steady state giving the effect ([1]; 30 mg/kg/day): 0.019 | Free plasma concentration at the steady state giving the effect ([1]; 50 mg/kg/day): 0.034
